According to US8269000B2, “Substituted pyrimidine and triazine compounds” (Gruenenthal GmbH, priority 2008, dated 2012):

These molecules were tested against T1, rat B1R (Rattus norvegicus, UniProt P97583) (assay: FLIPR Ca2+ functional study on bradykinin receptor 1 (rB1R CHO K1 cells)). Conditions: % inhibition rat B1R at 10 μM.
T1 construct: expressed in transfected cells; host or cells: CHO K1 cells
T1 sequence (P97583 1-337): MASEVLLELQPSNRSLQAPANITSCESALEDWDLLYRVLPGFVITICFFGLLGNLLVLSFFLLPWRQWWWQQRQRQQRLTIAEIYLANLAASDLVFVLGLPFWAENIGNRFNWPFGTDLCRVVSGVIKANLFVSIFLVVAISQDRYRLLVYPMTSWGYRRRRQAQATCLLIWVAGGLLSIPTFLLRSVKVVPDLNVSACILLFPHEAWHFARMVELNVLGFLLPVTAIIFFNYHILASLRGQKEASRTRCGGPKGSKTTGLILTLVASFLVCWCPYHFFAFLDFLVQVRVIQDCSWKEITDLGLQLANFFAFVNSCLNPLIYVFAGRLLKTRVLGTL
Format: cell-based
Method in brief: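 Antagonism was calculated as % of maximal inhibition of the Ca2+ rise triggered by agonist at EC80 (Lys-Des-Arg9-bradykinin for hB1R, Des-Arg9-bradykinin for rB1R), added 10-20 min after test compound (10 μM or serial dilutions for IC50) to Fluo-4-loaded transfected CHO K1 cells on FLIPR. Duplicates or triplicates, ≥2 independent runs.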

| % inh. (rat B1R) 10 μM [%] | Compound |
| --- | --- |
| 97 | COc1cc(C)c(S(=O)(=O)N2CCC[C@H]2COc2ccnc(N3CCC4(CC3)C(=O)NCN4c3ccccc3)n2)c(C)c1 [H_CC-024, 8-[4-[[(2S)-1-(4-methoxy-2,6-dimethylphenyl)sulfonyl-2-pyrrlidinyl]methoxy]-2-pyrimidinyl]-4-phenyl-2,4,8-triazaspiro[4.5]decan-1-one] |
| 65 | COc1cc(C)c(S(=O)(=O)N2CCC[C@H]2COc2ccnc(N3CCN(C4CCN(C)CC4)CC3)n2)c(C)c1 [H_CC-025, 4-[[(2S)-1-(4-methoxy-2,6-dimethylphenyl)sulfonyl-2-pyrrlidinyl]methoxy]-2-[4-(1-methyl-4-piperidinyl)-1-piperazinyl]pyrimidine] |
| 75 | COc1cc(C)c(S(=O)(=O)N2CCC[C@H]2COc2ccnc(N3CCC(CCN4CCCCC4)CC3)n2)c(C)c1 [H_CC-026, 4-[[(2S)-1-(4-methoxy-2,6-dimethylphenyl)sulfonyl-2-pyrrlidinyl]methoxy]-2-[4-[2-(1-piperidyl)ethyl]-1-piperidinyl]pyrimidine] |

Same assay, conditions: CHO-K1, % inhibition rat B1R at 10 μM, read-out: % inh. (rat B1R) 10 μM

| inhibition at 10 µM [%] | Compound |
| --- | --- |
| 91 | COc1cc(C)c(S(=O)(=O)N2c3ccccc3C[C@H]2COc2ccnc(N3CCN(C4CCN(C)CC4)CC3)n2)c(C)c1 [H_CC-027, (2S)-1-(4-methoxy-2,6-dimethylphenyl)sulfonyl-2-[[2-[4-(1-methyl-4-piperidinyl)-1-piperazinyl]-4-pyrimidinyl]oxymethyl]indoline] |
| 83 | COc1cc(C)c(S(=O)(=O)N2c3ccccc3C[C@H]2COc2ccnc(N3CCC(CCN4CCCCC4)CC3)n2)c(C)c1 [H_CC-028, (2S)-1-(4-methoxy-2,6-dimethylphenyl)sulfonyl-2-[[2-[4-[2-(1-piperidyl)ethyl]-1-piperidinyl]-4-pyrimidinyl]oxymethyl]indoline] |

Continued, molecule first:

| Compound | inhibition at 10 µM [%] |
| --- | --- |
| COc1cc(C)c(S(=O)(=O)N2CCC[C@H]2COc2ccnc(N3CCC4(CCN(Cc5ccccc5)C4)C3)n2)c(C)c1 (stereo partly drawn) [H_CC-023, 3-benzyl-7-[4-[[(2S)-1-(4-methoxy-2,6-dimethylphenyl)sulfonyl-2-pyrrolidinyl]methoxy]-2-pyrimidinyl]-3,7-diazaspiro[4.4]nonane] | 76 |
| COc1cc(C)c(S(=O)(=O)N2CCCCC2COc2ccnc(N3CCC4(CCN(Cc5ccc(F)cc5)C4=O)CC3)n2)c(C)c1 (centres unmarked) [H_CC-030, 3-[(4-fluorophenyl)methyl]-8-[4-[[1-(4-methoxy-2,6-dimethylphenyl)sulfonyl-2-piperidinyl]methoxy]-2-pyrimidinyl]-3,8-diazaspiro[4.5]decan-4-one] | 49 |
| COc1cc(C)c(S(=O)(=O)N2CCCCC2COc2ccnc(N3CCC(CNC(=O)c4ccncc4)(N4CCN(C)CC4)CC3)n2)c(C)c1 (centres unmarked) [H_CC-031, N-[[1-[4-[[1-(4-methoxy-2,6-dimethylphenyl)sulfonyl-2-piperidinyl]methoxy]-2-pyrimidinyl]-4-(4-methyl-1-piperazinyl)-4-piperidinyl]methyl]-4-pyridinecarboxamide] | 56 |
| COc1cc(C)c(S(=O)(=O)N(C)CCOc2ccnc(N3CCC(OCCN4CCCC4)(c4cccnc4)CC3)n2)c(C)c1 [H_CC-033, 4-methoxy-N,2,6-trimethyl-N-[2-[[2-[4-(3-pyridyl)-4-(2-1-pyrrolidinylethoxy)-1-piperidinyl]-4-pyrimidinyl]oxy]ethyl]benzenesulfonamide] | 82 |
| COc1cc(C)c(S(=O)(=O)N(C)CCOc2ccnc(N3CC4CC3CN4Cc3ccncc3)n2)c(C)c1 (centres unmarked) [H_CC-034, 4-methoxy-N,2,6-trimethyl-N-[2-[[2-[2-(4-pyridylmethyl)-2,5-diazabicyclo[2.2.1]heptan-5-yl]-4-pyrimidinyl]oxy]ethyl]benzenesulfonamide] | 74 |
| COc1cc(C)c(S(=O)(=O)N2CCCCC2COc2ccnc(N3CCC(OCCN4CCCC4)(c4cccnc4)CC3)n2)c(C)c1 (centres unmarked) [H_CC-035, 4-[[1-(4-methoxy-2,6-dimethylphenyl)sulfonyl-2-piperidinyl]methoxy]-2-[4-(3-pyridyl)-4-(2-1-pyrrolidinylethoxy)-1-piperidinyl]pyrimidine] | 86 |
